Tested on: panel of 484 cancer cell lines
Assay: PRISM cancer cell line profiling, 5 days
Format: cell-based
Set-up: AUC: unit not given beside the values
Description: Cancer cell line profiling was performed using the Broad’s PRISM platform. Cell treatment and data analysis were performed as described in Yu et al[42]. Raw Luminex signal was converted to AUC values for each cell line as described. The resulting AUC profile for each compound was modeled against DepMap using the limma package in R[71]. Because hotspot mutation analysis was performed against DepMap, TP53 annotations in Fig. 6c,d are directly from DepMap.

CN1CCN(CCC(=O)Nc2ccc3c(=O)n(CC4(O)CCN(C(=O)[C@@H](CCCNC(=O)c5ccc6c(Cl)c7c(nc6c5)CCCC7)Cc5ccccc5)CC4)cnc3c2)CC1 [XL177A]
AUC (8MGBA_CENTRAL_NERVOUS_SYSTEM): 1.174
AUC (22RV1_PROSTATE): 0.9618
AUC (42MGBA_CENTRAL_NERVOUS_SYSTEM): 1
AUC (253JBV_URINARY_TRACT): 0.9502
AUC (253J_URINARY_TRACT): 1.095
AUC (639V_URINARY_TRACT): 0.832
AUC (647V_URINARY_TRACT): 1.06
AUC (769P_KIDNEY): 1.126
AUC (786O_KIDNEY): 1.266
AUC (5637_URINARY_TRACT): 1.038
AUC (8305C_THYROID): 1.048
AUC (8505C_THYROID): 0.9221
AUC (2313287_STOMACH): 1.154
AUC (A101D_SKIN): 1.013
AUC (A172_CENTRAL_NERVOUS_SYSTEM): 0.8471
AUC (A204_SOFT_TISSUE): 0.8422
AUC (A375_SKIN): 1.23
AUC (A549_LUNG): 0.8217
AUC (A673_BONE): 1.349
AUC (A704_KIDNEY): 1.109
AUC (A2058_SKIN): 0.9507
AUC (A2780_OVARY): 0.804
AUC (ABC1_LUNG): 1.07
AUC (ACCMESO1_PLEURA): 1.035
AUC (ACHN_KIDNEY): 1.124
AUC (AGS_STOMACH): 0.9408
AUC (AN3CA_ENDOMETRIUM): 0.9198
AUC (ASPC1_PANCREAS): 1.1544
AUC (BC3C_URINARY_TRACT): 1.1182
AUC (BCPAP_THYROID): 0.9965
AUC (BECKER_CENTRAL_NERVOUS_SYSTEM): 0.8518
AUC (BEN_LUNG): 1.124
AUC (BFTC905_URINARY_TRACT): 0.8686
AUC (BFTC909_KIDNEY): 0.9138
AUC (BHT101_THYROID): 0.9801
AUC (BICR6_UPPER_AERODIGESTIVE_TRACT): 0.8445
AUC (BICR16_UPPER_AERODIGESTIVE_TRACT): 0.8236
AUC (BICR31_UPPER_AERODIGESTIVE_TRACT): 0.8691
AUC (BICR56_UPPER_AERODIGESTIVE_TRACT): 0.8298
AUC (BT474_BREAST): 1.426
AUC (BT549_BREAST): 0.9189
AUC (BXPC3_PANCREAS): 1.188
AUC (CADOES1_BONE): 1.097
AUC (CAKI1_KIDNEY): 1.0035
AUC (CAL12T_LUNG): 1.065
AUC (CAL27_UPPER_AERODIGESTIVE_TRACT): 0.8579
AUC (CAL29_URINARY_TRACT): 0.9717
AUC (CAL51_BREAST): 0.9698
AUC (CAL54_KIDNEY): 1.122
AUC (CAL62_THYROID): 0.9897
AUC (CAL78_BONE): 0.8669
AUC (CAL120_BREAST): 0.8877
AUC (CALU1_LUNG): 1.403
AUC (CALU6_LUNG): 0.9933
AUC (CAMA1_BREAST): 0.994
AUC (CAOV3_OVARY): 1.046
AUC (CAPAN2_PANCREAS): 1.09
AUC (CCFSTTG1_CENTRAL_NERVOUS_SYSTEM): 0.9028
AUC (CFPAC1_PANCREAS): 1.131
AUC (CHL1_SKIN): 1.028
AUC (CJM_SKIN): 0.9117
AUC (CL34_LARGE_INTESTINE): 1.2091
AUC (COLO668_LUNG): 0.9325
AUC (COLO679_SKIN): 0.9271
AUC (COLO680N_OESOPHAGUS): 0.903
AUC (COLO741_SKIN): 1.181
AUC (COLO783_SKIN): 0.896
AUC (COLO792_SKIN): 1.217
AUC (COLO800_SKIN): 0.9306
AUC (CORL23_LUNG): 0.9099
AUC (CORL105_LUNG): 0.9151
AUC (COV362_OVARY): 0.9501
AUC (COV434_OVARY): 0.6134
AUC (DANG_PANCREAS): 1.103
AUC (DAOY_CENTRAL_NERVOUS_SYSTEM): 0.9019
AUC (DBTRG05MG_CENTRAL_NERVOUS_SYSTEM): 0.986
AUC (DETROIT562_UPPER_AERODIGESTIVE_TRACT): 0.8984
AUC (DKMG_CENTRAL_NERVOUS_SYSTEM): 1.055
AUC (DMS273_LUNG): 0.9756
AUC (DU145_PROSTATE): 0.9953
AUC (DV90_LUNG): 0.6429
∆ (AUC, TP53 mutation vs WT; decreased sensitivity) (DepMap TP53 mutation annotation): 0.0512
AUC (EBC1_LUNG): 0.8513
AUC (ECGI10_OESOPHAGUS): 1.105
AUC (EFM192A_BREAST): 1.042
AUC (EFO21_OVARY): 0.9443
AUC (EFO27_OVARY): 0.9949
AUC (EN_ENDOMETRIUM): 1.056
AUC (ES2_OVARY): 1.069
AUC (ESS1_ENDOMETRIUM): 0.9952
AUC (EWS502_BONE): 1.4146
AUC (FADU_UPPER_AERODIGESTIVE_TRACT): 1.156
AUC (FTC133_THYROID): 0.8526
AUC (FTC238_THYROID): 0.8658
AUC (G292CLONEA141B1_BONE): 1.276
AUC (G361_SKIN): 1.1047
AUC (G401_SOFT_TISSUE): 0.6407
AUC (G402_SOFT_TISSUE): 0.5799
AUC (GAMG_CENTRAL_NERVOUS_SYSTEM): 1.102
AUC (GB1_CENTRAL_NERVOUS_SYSTEM): 1.09
AUC (GCIY_STOMACH): 1.0232
AUC (GCT_SOFT_TISSUE): 1.012
AUC (GI1_CENTRAL_NERVOUS_SYSTEM): 1.111
AUC (GMS10_CENTRAL_NERVOUS_SYSTEM): 1.007
AUC (GOS3_CENTRAL_NERVOUS_SYSTEM): 0.7415
AUC (GP2D_LARGE_INTESTINE): 1.073
AUC (H4_CENTRAL_NERVOUS_SYSTEM): 0.8128
AUC (HARA_LUNG): 1.29
AUC (HCC15_LUNG): 0.9559
AUC (HCC38_BREAST): 1.2075
AUC (HCC44_LUNG): 0.9515
AUC (HCC56_LARGE_INTESTINE): 1.407
AUC (HCC78_LUNG): 1.024
AUC (HCC95_LUNG): 0.9165
AUC (HCC366_LUNG): 0.9914
AUC (HCC827_LUNG): 0.8612
AUC (HCC1143_BREAST): 1.083
AUC (HCC1195_LUNG): 0.8483
AUC (HCC1359_LUNG): 1.123
AUC (HCC1419_BREAST): 1.047
AUC (HCC1428_BREAST): 0.8065

— article PMC7093416, “Selective USP7 inhibition elicits cancer cell killing through a p53-dependent mechanism” (Scientific Reports, 2020)
